Patent US20260035363A1, “COMPOUNDS AND METHODS OF USE THEREOF AS ANTIBACTERIAL AGENTS” (priority 2019, published 2026)
Values after ≈ are worked out from the molar mass of the structure shown. Where two headings read alike, the source gives them in different places.

Assays:
Type in all cases: cell-based
[1] = tested on: Mycobacterium tuberculosis (Mtb-GFP; H37Rv pMSP12::GFP); assay: microbe, parasite or virus in culture; settings: 168 h, pH 6.8, read-out: Mtb Cho MITC95, cholesterol carbon source, pH 6.8, 7-day growth, GFP fluorescence, lowest concentration inhibiting 95% of growth
[2] = tested on: Mycobacterium tuberculosis (Mtb-GFP; H37Rv pMSP12::GFP); assay: microbe, parasite or virus in culture; settings: 168 h, pH 6.8, read-out: Mtb Glu MITC95, glucose carbon source, pH 6.8, 7-day growth, GFP fluorescence, lowest concentration inhibiting 95% of growth
[3] = tested on: mitochondrial protein synthesis in HepG2 cells; assay: Mitochondrial protein synthesis assay (COX-I to SDH-A ratio, In Cell ELISA); settings: Homo sapiens, HepG2, 96 h, 4 days, ratio of COX-I to SDH-A levels, read-out: MPS IC50
Experimental: Mitochondrial Protein Synthesis Assay
Inhibition of mitochondrial protein synthesis was assessed in HepG2 cells by comparing the levels of two subunits of oxidative phosphorylation enzyme complexes, subunit I of Complex IV (COX-I) and the 70 kDa subunit of Complex II (SDH-A). COX-I is mitochondrial DNA encoded and SDH-A is nuclear DNA encoded. HepG2 cells were seeded in 96-well collagen coated plates at 8,000 cells per well and exposed to 2-fold serial dilutions of compounds from 100 μM to 6.25 μM. Microtiter plates were incubated for approximately 5 replication cycles (4 days) prior to assessment of protein levels using a kit as described by the manufacturer (ab110217 MitoBiogenesis In Cell ELISA Kit, Abcam, Cambridge, MA). Inhibition of mitochondrial protein synthesis was expressed as a ratio of COX-1 to SDH-A levels.

| SMILES | MIC [1] [µM] | MIC [2] [µM] | IC50 [3] [µM] |
| --- | --- | --- | --- |
| Cc1cn(C[C@H]2CC(c3cc(F)c(C4(F)CCS(=O)(=O)CC4)c(F)c3)=NO2)nn1 [Example 54, 4-(2,6-Difluoro-4-{(5R)-5-[(4-methyl-1H-1,2,3-triazol-1-yl)methyl]-4,5-dihydro-1,2-oxazol-3-yl}phenyl)-4-fluoro-1λ^6-thiane-1,1-dione] | 1.17 (≈ 0.501 µg/mL) | 0.78 (≈ 0.334 µg/mL) | 45 |
| CN1CC(S(=O)(=O)c2ccc(-c3ccc(C4=NO[C@@H](CO)C4)cc3F)cc2)C1 [Example 13, [(5R)-3-[3-Fluoro-4-[4-(1-methylazetidin-3-yl)sulfonylphenyl]phenyl]-4,5-dihydroisoxazol-5-yl]methanol] | 1.2 (≈ 0.485 µg/mL) | 1 (≈ 0.404 µg/mL) | 24 |
| CN1CC(C)(S(=O)(=O)c2ccc(-c3ccc(C4=NO[C@@H](C(N)=O)C4)cc3F)cc2)C1 [Example 56, (5R)-3-[4′-(1,3-Dimethylazetidine-3-sulfonyl)-2-fluoro[1,1′-biphenyl]-4-yl]-4,5-dihydro-1,2-oxazole-5-carboxamide] | 6.25 (≈ 2.7 µg/mL) | 13 (≈ 5.61 µg/mL) | > 100 |
| CN=S1(=O)CCC(F)(c2c(F)cc(C3=NO[C@@H](Cn4ccnn4)C3)cc2F)CC1 (single isomer, unassigned) [Example 6] | 1.56 (≈ 0.667 µg/mL) | 1.56 (≈ 0.667 µg/mL) | > 100 |
